Key:
[1] = parameters: method as in PMID 11060779; conditions: cited from earlier work
Dogs = tested on: Dogs; parameters: method as in Classen et al., 1999 [30]; conditions: 20 mg kg^−1 per day, i.m. for 30 days, ref Classen et al., 1999 [30]; cited from earlier work
Mouse = tested on: Mouse; parameters: method as in Nontprasert et al., 2000 [42]; conditions: 300 mg kg^−1 per day, p.o. for 28 days, ref Nontprasert et al., 2000 [42]; cited from earlier work
beagle dogs [2] = assay: Hematology in the 13-week repeated-dose dog study; assay type: in vivo
Protocol: (§1) The first day of treatment was regarded as day one in the study. […] Oral administration was performed about 2 h after feeding. ARM was administered by a bolus intramuscular infusion through a 25-gauge needle at a constant volume of 2 ml kg^−1 once a day into the gluteal and infraspinous muscles. Two dogs of each sex from each group were allowed to recover without further treatment for an additional 4 weeks.
Blood samples were collected from the femoral vein of each dog prior to treatment and every 2 weeks after the first day of treatment. Hematology parameters were measured using an automated hematology analyzer (Sysmex, XT-2000iv, Toa Medical Electronics Co. Ltd., Kobe, Japan) using standard methods. Test parameters included hemoglobin (Hb) levels, the hematocrit (Hct) fraction, erythrocyte (RBC) count, leukocyte (WBC) count, neutrophilic granulocyte fraction (NE%), monocyte fraction (MO%), lymphocyte levels (LY%), platelet count (PLT), reticulocyte count (RET%) and RBC morphology. The following clinical chemistry parameters were measured using a Hitachi-7180 Chemistry Analyzer (High-Technologies Corporation, Tokyo, Japan) and standard methods: glucose, blood urea nitrogen, inorganic phosphorus, creatinine, total protein, albumin, calcium, aspartate aminotransferase (AST), alanine aminotransferase, alkaline phosphatase, total bilirubin, creatine kinase (CK), sodium, potassium and chloride.
The differential granulocytic and erythrocytic series (erythroid, myeloid blast cell count and the red ratio) were determined manually from blood smears.

beagle dogs [3] = assay: Clinical observations; assay type: in vivo
Protocol: as §1
All dogs were assessed once daily for mortality and toxicological or other clinical signs, including behavioral changes (such as tremor, gait impairment, balance disturbance and auditory impairment), appetite, excreta (urinalysis for specific gravity, ketone bodies and pH), balance and coordination. Standard and acceptable veterinary health care practices were used during this evaluation to ensure good health of the animals.

beagle dogs [4] = assay: Organ weights at necropsy; assay type: in vivo, dog
Protocol: as §1
Termination of treatment was scheduled to occur on weeks 4, 8 (two interim necropsies) and 13, followed by a 4-week recovery period. For pathological examinations, the animals were euthanized within 24 h of the final drug administration with sodium pentobarbital, followed by exsanguination via the femoral artery. A gross necropsy was performed, including a thorough visual examination of all the internal organs. Weights were obtained for the brain, heart, liver, spleen, lung, kidneys, adrenals, thyroid/parathyroids, thymus, pancreas and ovaries/testes/prostate, and organ-to-body weight ratios were calculated. For each animal, representative samples from approximately 48 organs and tissues were taken and fixed in neutral buffered 10% formalin, except for the sternum, which was retained in Helly’s fixative (1000 ml distilled water, 25 g potassium dichromate, 10 g sodium sulfate, 50 g mercuric chloride, 50 ml 40% formaldehyde). […]

[5] = parameters: method as in Li et al. (2006); conditions: applied to ARM plasma levels; ref Li et al. (2006); cited from earlier work
beagle dogs [6] = assay: Electrocardiography in the 13-week repeated-dose dog study; assay type: in vivo; conditions: for Heart rate: 6 mg kg^-1 per day (ART p.o., ARM i.m.), vs control group
Protocol: as §1
Electrocardiograms were recorded using an Auto Electrocardiogram (ECG-9130P, Nihon Kohden Corporation, Japan). Recordings were taken from each dog, while conscious, every 2 weeks from week-1. Leads I, II, III, aVR, aVL and aVF were utilized. The electrocardiography (ECG) parameters included heart rate, PR, QRS and QT interval, and QRS and T wave amplitudes. As the PQ and QT intervals vary with heart rate, they were adjusted to an RR-interval of 500 ms, corresponding to a heart rate of 120 bpm using the following equation: QT500 = QT – 0.084×(RR – 500).

Rats [7] = tested on: Rats; parameters: method as in Xiao et al. (2002) [31]; conditions: cited from earlier work
Rats [8] = tested on: Rats; parameters: method as in Akinlolu and Shokunbi, 2008 [41]; conditions: 25 mg kg^−1 per day, i.m. for 7 days, ref Akinlolu and Shokunbi, 2008 [41]; cited from earlier work
[9] = week 2 until week 10 post-treatment, vs control groups (p<0.05)
[10] = oral 80 and 400 mg kg^−1 once every 2 weeks for 5 months, ref Xiao et al. (2002) [31]
[11] = oral high dose of 400 mg kg^−1, ref Xiao et al. (2002) [31]

CO[C@H]1O[C@@H]2O[C@@]3(C)CC[C@H]4[C@H](C)CC[C@@H]([C@H]1C)[C@@]24OO3 [ARM, artemether]
solubility character [1]: fat soluble
Effect (toxicology) (Dogs): Axonal damage in the cerebellar roof, pontine and vestibular nuclei, and in the raphe/ paralemniscal region; hypochromic, microcytic anemia
Effect (toxicology) (Mouse): Balance/gait disturbances and mortality
Hematology (overall) (beagle dogs [2]; Week 13, 6 mg kg^-1 per day): - (“-” = No effect)
MO% (beagle dogs [2]; females, after weeks 6, 8 and 10 (p<0.05)): significant increases
Hb levels (beagle dogs [2]; week 2): corresponding decrease
RBC counts (beagle dogs [2]; week 2): decrease
LY% (beagle dogs [2]; [9]): decreased
NE% (beagle dogs [2]; [9]): significantly increased
WBC count (beagle dogs [2]; [9]): significantly increased
RET% (beagle dogs [2]; week 10, males and females, vs peanut oil control group (p<0.05)): significant increase
behavioral changes (beagle dogs [3]; 6 mg kg^-1 per day i.m. for 13 weeks): not observed
main clinical signs (beagle dogs [3]; 6 mg kg^-1 per day i.m., after treatment for 4 weeks up to the end of the recovery period): skin thickening at the injection site and myonecrosis-like features
absolute or relative weights of brain, heart, liver, spleen, lungs, kidneys, adrenals, thyroid/parathyroids, pancreas, ovaries, testes or prostate (beagle dogs [4]; 6 mg kg^-1 per day, vs relative controls): no statistically significant effects
thymus weight (beagle dogs [4]; weeks 4 and 8, one of the two male dogs, i.m.): mild decrease
lowest observed neurotoxic effect level (plasma concentration) [5]: 40.92 ng/mL
Heart rate (beagle dogs [6]; Week 4): - (“-” = No effect)
Heart rate (beagle dogs [6]; Week 8): - (“-” = No effect)
Heart rate (beagle dogs [6]; Week 13): - (“-” = No effect)
mean QT intervals (adjusted for heart rate, QT500) (beagle dogs [6]; week 3 until the final drug treatment, male and female dogs, vs vehicle control): prolonged
Hb levels (Rats [7]; [10]): reversible increase
QT interval (Rats [7]; [10]): No changes
reticulocyte count (Rats [7]; [10]): reversible reduction
liver finding (Rats [7]; [11]): transient focal vesicle degeneration of the liver
neuropathological alterations (Rats [7]; [11]): no evidence of neuropathological alterations
Effect (toxicology) (Rats [8]): Damage of trapezoid nuclei, abnormalities in balance and coordination

Reference: paper PMC3989207, “Subchronic Toxicological Study of Two Artemisinin Derivatives in Dogs” (PLoS ONE, 2014)
